Measurements: patent US20190022016A1, “COMPOSITIONS FOR SUSTAINED RELEASE OF ANTI-GLAUCOMA AGENTS TO CONTROL INTRAOCULAR PRESSURE” (The Johns Hopkins University, priority 2016, published 2019)

What was measured:
[1] = systemic; cited from earlier work
[2] = In vitro drug release from microparticles in PBS; assay type: physicochemical; details: for duration of in vitro drug release: PBS pH 7.4, 37° C., infinite sink, PEG3-PSA microparticles, 2% PEG; for drug released during the first 6 days / release over the initial 24 hours: from PEG3-PSA, infinite sink conditions
Protocol: PEG3-PSA is a polyanhydride polymer that undergoes surface erosion to deliver continuous drug release and has been previously used for ocular delivery. Particle disappearance parallels drug release due to surface erosion. Particles were suspended in phosphate buffered saline (PBS, pH 7.4) at 5 mg/mL and incubated at 37° C. on a rotating platform (140 RPM). At selected time points, supernatant was collected by centrifugation (8,000×g for 5 min) and particles were resuspended in fresh PBS. Drug content was measured by spectraphotometer.

SMILES	IOP reduction [1] [%]	duration of in vitro drug release [2] [days]	drug released during the first 6 days [2] [%]	release over the initial 24 hours [2] [%]
CC(=O)Nc1nnc(S(N)(=O)=O)s1 [acetazolamide]	30			
CCN[C@H]1C[C@H](C)S(=O)(=O)c2sc(S(N)(=O)=O)cc21 [dorzolamide]		12	80	18
CCN[C@H]1CN(CCCOC)S(=O)(=O)c2sc(S(N)(=O)=O)cc21 [brinzolamide]		12	80	12
